In brackets after ≈: the same amount, converted by molar mass. Peptide text beside a SMILES is read from it. * marks the point of attachment. βNA = c1ccc2cc(N*)ccc2c1
Columns and labels:
Streptomyces coelicolor [1] = test: Inhibition of MFS efflux pump in Streptomyces coelicolor assessed as reduction in chloramphenicol MIC at 25 ug/ml after 48 hrs relative to control
Streptomyces coelicolor [2] = test: Inhibition of MFS efflux pump in apramycin-resistant cmlR1 null mutant Streptomyces coelicolor assessed as reduction in chloramphenicol MIC at 25 ug/ml after 48 hrs relative to control
Streptomyces coelicolor [3] = test: Inhibition of MFS efflux pump in apramycin-resistant cmlR2 null mutant Streptomyces coelicolor assessed as reduction in chloramphenicol MIC at 10 ug/ml after 48 hrs relative to control
Streptomyces coelicolor [4] = test: Inhibition of MFS efflux pump in apramycin-resistant cmlR2 null mutant Streptomyces coelicolor assessed as reduction in chloramphenicol MIC at 25 ug/ml after 48 hrs relative to control
Streptomyces coelicolor [5] = test: Inhibition of MFS efflux pump in Streptomyces coelicolor assessed as reduction in chloramphenicol MIC at 10 ug/ml after 48 hrs relative to control
Streptomyces coelicolor [6] = test: Inhibition of MFS efflux pump in apramycin-resistant cmlR1 null mutant Streptomyces coelicolor assessed as reduction in chloramphenicol MIC at 10 ug/ml after 48 hrs relative to control
Streptomyces coelicolor [7] = test: Inhibition of MFS efflux pump in Streptomyces coelicolor assessed as reduction in chloramphenicol MIC at 50 ug/ml after 48 hrs relative to control
Streptomyces coelicolor [8] = test: Inhibition of MFS efflux pump in apramycin-resistant cmlR2 null mutant Streptomyces coelicolor assessed as reduction in chloramphenicol MIC at 50 ug/ml after 48 hrs relative to control
Streptomyces coelicolor [9] = test: Inhibition of MFS efflux pump in Streptomyces coelicolor assessed as reduction in chloramphenicol MIC at 75 ug/ml after 48 hrs relative to control
Streptomyces coelicolor [10] = test: Inhibition of MFS efflux pump in apramycin-resistant cmlR1 null mutant Streptomyces coelicolor assessed as reduction in chloramphenicol MIC at 50 ug/ml after 48 hrs relative to control
Streptomyces coelicolor [11] = test: Inhibition of MFS efflux pump in apramycin-resistant cmlR1 null mutant Streptomyces coelicolor assessed as reduction in chloramphenicol MIC at 75 ug/ml after 48 hrs relative to control
Streptomyces coelicolor [12] = test: Inhibition of MFS efflux pump in apramycin-resistant cmlR2 null mutant Streptomyces coelicolor assessed as reduction in chloramphenicol MIC at 75 ug/ml after 48 hrs relative to control
Streptomyces coelicolor [13] = test: Antimicrobial activity against apramycin-resistant cmlR2 null mutant Streptomyces coelicolor B756 after 48 hrs relative to wild type; type: functional
Streptomyces coelicolor [14] = test: Antimicrobial activity against apramycin-resistant cmlR1 null mutant Streptomyces coelicolor B754 after 48 hrs relative to wild type; type: functional
Streptomyces coelicolor [15] = test: Antimicrobial activity against Streptomyces coelicolor B759 overexpressing cmlR2 after 48 hrs relative to wild type; type: functional
Streptomyces coelicolor [16] = test: Antimicrobial activity against Streptomyces coelicolor B758 overexpressing cmlR1 after 48 hrs relative to wild type; type: functional
Streptomyces coelicolor [17] = test: Antimicrobial activity against Streptomyces coelicolor after 48 hrs; type: functional

Row | Compound | fold change (FC) (Streptomyces coelicolor [1]) | fold change (FC) (Streptomyces coelicolor [2]) | fold change (FC) (Streptomyces coelicolor [3]) | fold change (FC) (Streptomyces coelicolor [4]) | fold change (FC) (Streptomyces coelicolor [5]) | fold change (FC) (Streptomyces coelicolor [6]) | fold change (FC) (Streptomyces coelicolor [7]) | fold change (FC) (Streptomyces coelicolor [8]) | fold change (FC) (Streptomyces coelicolor [9]) | fold change (FC) (Streptomyces coelicolor [10]) | fold change (FC) (Streptomyces coelicolor [11]) | fold change (FC) (Streptomyces coelicolor [12]) | fold change (FC) (Streptomyces coelicolor [13]) | fold change (FC) (Streptomyces coelicolor [14]) | fold change (FC) (Streptomyces coelicolor [15]) | fold change (FC) (Streptomyces coelicolor [16]) | MIC (Streptomyces coelicolor [17])
1 | COC(=O)[C@H]1[C@H]2C[C@@H]3c4[nH]c5cc(OC)ccc5c4CCN3C[C@H]2C[C@@H](OC(=O)c2cc(OC)c(OC)c(OC)c2)[C@@H]1OC | 2.7 | 2.5 | 1.3 | 2 | 1.3 | 2.5 | 4 | 2 | 4 | 3.3 | 3.3 | 2 | – | – | – | – | –
2 | O=C(N[C@H](CO)[C@H](O)c1ccc([N+](=O)[O-])cc1)C(Cl)Cl [CHLORAMPHENICOL] | – | – | – | – | – | – | – | – | – | – | – | – | 16 | 1.6 | 4 | 2 | –
3 | CS(=O)(=O)c1ccc([C@@H](O)[C@@H](CF)NC(=O)C(Cl)Cl)cc1 [FLORFENICOL] | – | – | – | – | – | – | – | – | – | – | – | – | 3 | 1.8 | – | – | –
4 | N=C(N)NCCC[C@H](NC(=O)[C@@H](N)Cc1ccccc1)C(=O)Nc1ccc2ccccc2c1 [PABETAN] (H-Phe-Arg-βNA) | 3.2 | 3.3 | 1.7 | 1.7 | 2.7 | 2.5 | 4 | 1.7 | 8 | 3.3 | 5 | 1.7 | – | – | – | – | 200 µg/mL (≈ 448 µM)
5 | CS(=O)(=O)c1ccc([C@@H](O)[C@@H](CO)NC(=O)C(Cl)Cl)cc1 [THIAMPHENICOL] | – | – | – | – | – | – | – | – | – | – | – | – | >10 | – | – | – | –

Source: ChEMBL document CHEMBL1649248, “Two distinct major facilitator superfamily drug efflux pumps mediate chloramphenicol resistance in Streptomyces coelicolor” (2009)
